Earlier results on one substance are cited in paper PMC3604136 (Nature chemical biology, 2013).

The data set concerns HIF-1 and HIF-2.

Turning to acriflavine, the HIF isoform inhibition result was “inhibits both HIF-1 and HIF-2”.
